# Results taken from PMC5524190 (Biochemistry, 2016).
# Biological target: BaIMPDHΔL
# Type: biochemical, Bacillus anthracis
# Details: read-out: k−7/k7, equilibrium dissociation constant of NAD+ substrate inhibition
structure (smiles),measurement,value
NC(=O)c1ccc[n+]([C@@H]2O[C@H](COP(=O)([O-])OP(=O)(O)OC[C@H]3O[C@@H](n4cnc5c(N)ncnc54)[C@H](O)[C@@H]3O)[C@@H](O)[C@H]2O)c1 [NAD^+],Kd,5.5 mM
